{"source": "paper PMC7327383", "about": "“The affinity and selectivity of α‐adrenoceptor antagonists, antidepressants, and antipsychotics for the human α1A, α1B, and α1D‐adrenoceptors” (Pharmacology Research & Perspectives, 2020)", "key": {"human α1B-adrenoceptor": {"target": "T1, human α1B-adrenoceptor (Homo sapiens, UniProt P35368)", "T1 construct": "CHO cells stably expressing either the full‐length human α1A, α1B, or α1D‐adrenoceptor", "T1 sequence (P35368 1-520)": "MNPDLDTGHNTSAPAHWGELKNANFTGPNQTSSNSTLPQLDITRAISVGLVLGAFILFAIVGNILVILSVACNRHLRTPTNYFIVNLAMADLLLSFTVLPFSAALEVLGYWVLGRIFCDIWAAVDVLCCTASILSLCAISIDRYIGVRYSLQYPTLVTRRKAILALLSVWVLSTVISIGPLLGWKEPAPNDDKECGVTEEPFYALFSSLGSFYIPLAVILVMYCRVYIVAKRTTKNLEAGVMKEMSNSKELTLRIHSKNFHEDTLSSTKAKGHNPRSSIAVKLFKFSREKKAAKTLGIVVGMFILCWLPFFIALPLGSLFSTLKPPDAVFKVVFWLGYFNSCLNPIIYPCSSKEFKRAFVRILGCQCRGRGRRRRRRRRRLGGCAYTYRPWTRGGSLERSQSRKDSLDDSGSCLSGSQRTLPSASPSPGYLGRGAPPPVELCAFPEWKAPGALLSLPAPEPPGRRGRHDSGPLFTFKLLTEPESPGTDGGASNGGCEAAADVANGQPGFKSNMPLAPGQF", "experiment": "[3H]prazosin whole-cell competition binding, CHO-α1B cells"}, "[1]": {"target": "T2, full-length human α1D-adrenoceptor (Homo sapiens, UniProt P25100)", "T2 sequence (P25100 1-572)": "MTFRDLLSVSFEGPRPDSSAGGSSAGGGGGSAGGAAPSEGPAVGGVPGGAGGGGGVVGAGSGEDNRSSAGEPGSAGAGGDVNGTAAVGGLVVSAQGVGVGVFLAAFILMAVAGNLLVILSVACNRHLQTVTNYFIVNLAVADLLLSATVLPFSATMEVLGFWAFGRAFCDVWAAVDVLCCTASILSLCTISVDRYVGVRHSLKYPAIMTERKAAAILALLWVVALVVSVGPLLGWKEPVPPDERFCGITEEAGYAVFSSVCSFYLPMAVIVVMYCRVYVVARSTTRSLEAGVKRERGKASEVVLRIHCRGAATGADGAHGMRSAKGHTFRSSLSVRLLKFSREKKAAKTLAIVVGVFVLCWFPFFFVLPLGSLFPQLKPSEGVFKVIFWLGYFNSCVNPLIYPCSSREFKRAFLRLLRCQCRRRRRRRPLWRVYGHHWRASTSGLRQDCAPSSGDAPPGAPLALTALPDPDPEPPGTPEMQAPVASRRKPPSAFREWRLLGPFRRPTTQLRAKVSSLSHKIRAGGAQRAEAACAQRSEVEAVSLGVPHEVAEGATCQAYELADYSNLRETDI", "experiment": "[3H]prazosin whole-cell competition binding, CHO-α1D cells"}, "human α1A-adrenoceptor": {"target": "T3, human α1A-adrenoceptor (Homo sapiens, UniProt P35348)", "T3 construct": "CHO cells stably expressing either the full‐length human α1A, α1B, or α1D‐adrenoceptor", "T3 sequence (P35348 1-466)": "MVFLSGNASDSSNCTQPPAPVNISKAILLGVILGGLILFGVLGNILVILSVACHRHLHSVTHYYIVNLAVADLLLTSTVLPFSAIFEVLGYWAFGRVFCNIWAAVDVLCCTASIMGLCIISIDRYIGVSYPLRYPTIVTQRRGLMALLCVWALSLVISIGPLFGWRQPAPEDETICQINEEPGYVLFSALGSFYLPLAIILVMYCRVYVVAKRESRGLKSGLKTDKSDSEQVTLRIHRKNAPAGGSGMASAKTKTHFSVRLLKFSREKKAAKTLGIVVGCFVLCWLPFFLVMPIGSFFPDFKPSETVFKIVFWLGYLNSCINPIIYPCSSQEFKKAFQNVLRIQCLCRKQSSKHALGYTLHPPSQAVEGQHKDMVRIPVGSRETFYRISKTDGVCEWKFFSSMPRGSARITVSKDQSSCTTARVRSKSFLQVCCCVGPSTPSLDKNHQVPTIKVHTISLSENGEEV", "experiment": "[3H]prazosin whole-cell competition binding, CHO-α1A cells", "conditions": "for Kd: single-component inhibition curve, given as log KD (negative), mean ± SE mean"}}, "note": "Read-outs that look alike come from different tables or passages of the source.", "data": [{"smiles": "Cc1ccc(/N=C/N(C)/C=N/c2ccc(C)cc2C)c(C)c1", "note": "[Amitraz]", "values": [{"measurement": "selectivity α1B vs α1D", "setting": "human α1B-adrenoceptor; ratio, 1 = no selectivity for a subtype over another", "value": ">12"}, {"measurement": "IC50", "setting": "human α1B-adrenoceptor; read-out: Log IC50 α1B (converted)", "value": "> 100", "unit": "µM"}, {"measurement": "Kd", "setting": "[1]", "value": 8.32, "unit": "µM"}, {"measurement": "Selectivity ratio α1B vs α1D", "setting": "[1]", "value": ">12", "unit": "fold"}, {"measurement": "Selectivity ratio α1A vs α1B", "setting": "human α1A-adrenoceptor", "value": ">33", "unit": "fold"}, {"measurement": "Selectivity ratio α1A vs α1D", "setting": "human α1A-adrenoceptor", "value": 2.8, "unit": "fold"}, {"measurement": "Kd", "setting": "human α1A-adrenoceptor; read-out: Log KD α1A (converted)", "value": 3020, "unit": "nM"}]}, {"smiles": "CN(C)CCCN1c2ccccc2CCc2ccc(Cl)cc21", "note": "[Clomipramine]", "values": [{"measurement": "Selectivity ratio α1B vs α1D", "setting": "human α1B-adrenoceptor", "value": 1.5, "unit": "fold"}, {"measurement": "Kd", "setting": "human α1B-adrenoceptor; single-component inhibition curve, given as log KD (negative), mean ± SE mean, read-out: Log KD α1B (converted)", "value": 457, "unit": "nM"}, {"measurement": "Kd", "setting": "[1]; Log KD α1D, single-component inhibition curve, given as log KD (negative), mean ± SE mean", "value": 0.708, "unit": "µM"}, {"measurement": "Selectivity ratio α1A vs α1B", "setting": "human α1A-adrenoceptor", "value": 60, "unit": "fold"}, {"measurement": "Selectivity ratio α1A vs α1D", "setting": "human α1A-adrenoceptor", "value": 93, "unit": "fold"}, {"measurement": "Kd", "setting": "human α1A-adrenoceptor; Log KD α1A", "value": 7.59, "unit": "nM"}]}]}
